Molecular target: PKM2 (Homo sapiens, UniProt P14618)
Assay: PKM2 Assay (activation, LDH-coupled, absorbance at 340 nm)
Type: biochemical
Settings: Table 4
Protocol: • PKM2 stock enzyme solution was diluted in Reaction Buffer • 2 μL of compound was added into each well first, and then 180 μL of the Reaction Mix was added. • Reaction mixture with compound (without ADP) was incubated for 30 minutes at 4° C. • Plates were re-equilibrated to room temperature prior to adding 20 μL ADP to initiate the reaction. • Reaction progress was measured as changes in absorbance at 340 nm wavelength at room temperature (25° C.) Reaction Mix: PKM2 (50 ng/well), ADP (0.7 mM), PEP (0.15 mM), NADH (180 μM), LDH (2 units) in Reaction Buffer Reaction Buffer: 100 mM KCl, 50 mM Tris pH 7.5, 5 mM MgCl2, 1 mM DTT, 0.03% BSA.
Representative compounds of the invention were tested for their ability to activate PKM2 using the above assay. For simplicity, the activation activity of these compounds is represented as an AC50 in Tables 4 and 5 and throughout the application. […] “B” refers to an activator of PKM2 with an EC50 between 100 nM and 500 nM. “C” refers to an activator of PKM2 with an EC50 between 500 nM and 1000 nM. “D” refers to an activator of PKM2 with an EC50 between 1 μM and 20 μM. “E” refers a compound whose activation of PKM2 was not measurable. “N/C” refers to AC50 data not available.

Sequence of PKM2 (P14618 whole entry): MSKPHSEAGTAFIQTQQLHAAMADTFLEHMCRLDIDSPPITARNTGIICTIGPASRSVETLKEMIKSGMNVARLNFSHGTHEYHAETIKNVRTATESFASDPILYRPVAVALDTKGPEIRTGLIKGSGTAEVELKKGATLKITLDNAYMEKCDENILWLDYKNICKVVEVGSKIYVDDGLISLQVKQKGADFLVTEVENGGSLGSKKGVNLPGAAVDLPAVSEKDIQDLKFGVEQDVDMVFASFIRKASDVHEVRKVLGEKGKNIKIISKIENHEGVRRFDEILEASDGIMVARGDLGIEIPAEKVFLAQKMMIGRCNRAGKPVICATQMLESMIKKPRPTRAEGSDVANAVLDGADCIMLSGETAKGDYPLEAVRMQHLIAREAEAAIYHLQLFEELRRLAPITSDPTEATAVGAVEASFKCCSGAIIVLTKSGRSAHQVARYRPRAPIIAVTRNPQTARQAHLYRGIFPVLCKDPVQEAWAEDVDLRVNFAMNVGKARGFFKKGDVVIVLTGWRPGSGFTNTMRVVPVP

AC50 [nM]	Compound
100 to 500	CC(c1ccc(F)cc1F)N1CCN(C(=O)c2ccc(NS(=O)(=O)c3cccc4cccnc34)cc2)[C@@H](C)C1 (stereo partly shown) [Compound 169]
100 to 500	CC(c1cc(F)cc(F)c1)N1CCN(C(=O)c2ccc(NS(=O)(=O)c3cccc4cccnc34)cc2)[C@@H](C)C1 (stereo partly shown) [Compound 170]
100 to 500	CC(c1ccc(F)cc1)N1CCN(C(=O)c2ccc(NS(=O)(=O)c3cccc4cccnc34)cc2)[C@@H](C)C1 (stereo partly shown) [Compound 171]
100 to 500	CC(c1c(F)cc(F)cc1F)N1CCN(C(=O)c2ccc(NS(=O)(=O)c3cccc4cccnc34)cc2)[C@@H](C)C1 (stereo partly shown) [Compound 172]
100 to 500	CC(c1ccc(F)c(F)c1F)N1CCN(C(=O)c2ccc(NS(=O)(=O)c3cccc4cccnc34)cc2)[C@@H](C)C1 (stereo partly shown) [Compound 173]
100 to 500	CC(c1cc(F)c(F)cc1F)N1CCN(C(=O)c2ccc(NS(=O)(=O)c3cccc4cccnc34)cc2)[C@@H](C)C1 (stereo partly shown) [Compound 174]
1000 to 20000	CC(C)[C@H]1CN(Cc2ccc(F)cc2)CCN1C(=O)c1ccc(NS(=O)(=O)c2cccc3cccnc23)cc1 [Compound 175]
1000 to 20000	CC(C)[C@H]1CN(Cc2cc(F)cc(F)c2)CCN1C(=O)c1ccc(NS(=O)(=O)c2cccc3cccnc23)cc1 [Compound 176]
1000 to 20000	CC(C)[C@H]1CN(C(C)c2ccc(F)cc2)CCN1C(=O)c1ccc(NS(=O)(=O)c2cccc3cccnc23)cc1 (stereo partly shown) [Compound 177]
100 to 500	C[C@H]1CN(CC2CC2)CCN1C(=O)c1ccc(NS(=O)(=O)c2cccc3cccnc23)cc1Cl [Compound 178]
100 to 500	C[C@H]1CN(Cc2cc(F)cc(F)c2)CCN1C(=O)c1ccc(NS(=O)(=O)c2cccc3cccnc23)cc1Cl [Compound 179]
100 to 500	O=C(c1ccc(NS(=O)(=O)c2cccc3cccnc23)cc1)N1CCN(CC2CC2)C[C@@H]1c1ccccc1 [Compound 180]
100 to 500	O=C(c1ccc(NS(=O)(=O)c2cccc3cccnc23)cc1)N1CCN(Cc2cc(F)cc(F)c2)C[C@@H]1c1ccccc1 [Compound 181]
100 to 500	CC(c1ccc(Cl)c(F)c1)N1CCN(C(=O)c2ccc(NS(=O)(=O)c3cccc4cccnc34)cc2)[C@@H](C)C1 (stereo partly shown) [Compound 182]
< 100	CC(c1ccccc1F)N1CCN(C(=O)c2ccc(NS(=O)(=O)c3cccc4cccnc34)cc2)[C@H](C)C1 (stereo partly shown) [Compound 183]
100 to 500	C[C@H]1CN(Cc2ccc(F)cc2)CCN1C(=O)c1ccc(NS(=O)(=O)c2cccc3cccnc23)cc1Cl [Compound 184, (S)—N-(3-chloro-4-(4-(4-fluorobenzyl)-2-methylpiperazine-1-carbonyl)phenyl)quinoline-8-sulfonamide]

AC50 [nM]	Compound
500 to 1000	C[C@H]1CN(Cc2ccc(Cl)c(F)c2)CCN1C(=O)c1ccc(NS(=O)(=O)c2cccc3cccnc23)cc1Cl [Compound 185, (S)—N-(3-chloro-4-(4-(4-chloro-3-fluorobenzyl)-2-methylpiperazine-1-carbonyl)phenyl)quinoline-8-sulfonamide]
< 100	C[C@H]1CN(CC2CCCC2)CCN1C(=O)c1ccc(NS(=O)(=O)c2cccc3cccnc23)cc1Cl [Compound 186, (S)—N-(3-chloro-4-(4-(cyclopentylmethyl)-2-methylpiperazine-1-carbonyl)phenyl)quinoline-8-sulfonamide]
100 to 500	C[C@H]1CN(CC2CCOC2)CCN1C(=O)c1ccc(NS(=O)(=O)c2cccc3cccnc23)cc1Cl (stereo partly drawn) [Compound 187, N-(3-chloro-4-((2S)-2-methyl-4-((tetrahydrofuran-3-yl)methyl)piperazine-1-carbonyl)phenyl)quinoline-8-sulfonamide]
500 to 1000	C[C@H]1CN(Cc2c(F)cc(F)cc2F)CCN1C(=O)c1ccc(NS(=O)(=O)c2cccc3cccnc23)cc1Cl [Compound 188, (S)—N-(3-chloro-4-(2-methyl-4-(2,4,6-trifluorobenzyl)piperazine-1-carbonyl)phenyl)quinoline-8-sulfonamide]
< 100	CC(c1ccc(F)c(F)c1F)N1CCN(C(=O)c2ccc(NS(=O)(=O)c3cccc4cccnc34)cc2)[C@H](C)C1 (stereo partly drawn) [Compound 189, N-(4-((2R)-2-methyl-4-(1-(2,3,4-trifluorophenyl)ethyl)piperazine-1-carbonyl)phenyl)quinoline-8-sulfonamide]
< 100	CC(c1c(F)ccc(F)c1F)N1CCN(C(=O)c2ccc(NS(=O)(=O)c3cccc4cccnc34)cc2)[C@H](C)C1 (stereo partly drawn) [Compound 190, N-(4-((2R)-2-methyl-4-(1-(2,3,6-trifluorophenyl)ethyl)piperazine-1-carbonyl)phenyl)quinoline-8-sulfonamide]
100 to 500	CC(c1ccc(F)cc1Cl)N1CCN(C(=O)c2ccc(NS(=O)(=O)c3cccc4cccnc34)cc2)[C@H](C)C1 (stereo partly drawn) [Compound 191, N-(4-((2R)-4-(1-(2-chloro-4-fluorophenyl)ethyl)-2-methylpiperazine-1-carbonyl)phenyl)quinoline-8-sulfonamide]
100 to 500	CC(c1c(F)ccc(F)c1F)N1CCN(C(=O)c2ccc(NS(=O)(=O)c3cccc4cccnc34)cc2)[C@@H](C)C1 (stereo partly drawn) [Compound 192, N-(4-((2S)-2-methyl-4-(1-(2,3,6-trifluorophenyl)ethyl)piperazine-1-carbonyl)phenyl)quinoline-8-sulfonamide]
< 100	CC1CN(Cc2cc(F)cc(F)c2)CC(C)N1C(=O)c1ccc(NS(=O)(=O)c2cccc3cccnc23)cc1 (stereo not shown) [Compound 194, N-(4-(4-(3,5-difluorobenzyl)-2,6-dimethylpiperazine-1-carbonyl)phenyl)quinoline-8-sulfonamide]
< 100	CC1CN(Cc2ccc(F)cc2)CC(C)N1C(=O)c1ccc(NS(=O)(=O)c2cccc3cccnc23)cc1 (stereo not shown) [Compound 196, N-(4-(4-(4-fluorobenzyl)-2,6-dimethylpiperazine-1-carbonyl)phenyl)quinoline-8-sulfonamide]
100 to 500	CC1CN(Cc2ccc(Cl)c(F)c2)CC(C)N1C(=O)c1ccc(NS(=O)(=O)c2cccc3cccnc23)cc1 (stereo not shown) [Compound 197, N-(4-(4-(4-chloro-3-fluorobenzyl)-2,6-dimethylpiperazine-1-carbonyl)phenyl)quinoline-8-sulfonamide]
100 to 500	CC1CN(CC2CCCCC2)CC(C)N1C(=O)c1ccc(NS(=O)(=O)c2cccc3cccnc23)cc1 (stereo not shown) [Compound 198, N-(4-(4-(cyclohexylmethyl)-2,6-dimethylpiperazine-1-carbonyl)phenyl)quinoline-8-sulfonamide]
< 100	CC1CN(Cc2c(F)ccc(F)c2F)CC(C)N1C(=O)c1ccc(NS(=O)(=O)c2cccc3cccnc23)cc1 (stereo not shown) [Compound 199, N-(4-(2,6-dimethyl-4-(2,3,6-trifluorobenzyl)piperazine-1-carbonyl)phenyl)quinoline-8-sulfonamide]
< 100	CC1CN(Cc2cc(F)cc(F)c2F)CC(C)N1C(=O)c1ccc(NS(=O)(=O)c2cccc3cccnc23)cc1 (stereo not shown) [Compound 200, N-(4-(2,6-dimethyl-4-(2,3,5-trifluorobenzyl)piperazine-1-carbonyl)phenyl)quinoline-8-sulfonamide]
100 to 500	CC1CN(Cc2cc(F)c(F)c(F)c2)CC(C)N1C(=O)c1ccc(NS(=O)(=O)c2cccc3cccnc23)cc1 (stereo not shown) [Compound 201, N-(4-(2,6-dimethyl-4-(3,4,5-trifluorobenzyl)piperazine-1-carbonyl)phenyl)quinoline-8-sulfonamide]
